Data from patent publication US20260274859A1, “FUSED POLYCYCLIC DERIVATIVE AND USE THEREOF” (ZHEJIANG HISUN PHARMACEUTICAL CO., LTD., priority 2023, published 2026).

Tests used:
Type in all cases: cell-based
[1] = tested on: HL60 cells; assay: Inhibition of proliferation of HL60 tumor cells (CCK8 or CTG); settings: Homo sapiens, HL-60
Experimental: The effect of the compound of the present disclosure on the proliferation of tumor cells was determined using the following method. The HL60 cells used in the method were purchased from Nanjing Kebai Biotechnology Co., Ltd., and the kit was the Cell Counting Kit-8/CCK-8 kit of MCE Company (article number: HY—K0301, specification: 3000T).
(1) HL60 cells in logarithmic growth phase were prepared into a cell suspension. The cell suspension was added into a 96-well plate at 5000 cells/well. The 96-well cell culture plate was placed in a CO2 incubator for 4 h of incubation of suspended cells or for 12 h of incubation of adherent cells.
(2) The compounds to be tested were diluted with IMDM complete culture medium to reach a concentration twice the testing concentration, and added to the corresponding wells.
(§1) (3) After the corresponding concentrations of the compounds to be tested were added, the plates were incubated in an incubator with 5% carbon dioxide at 37° C., and then the cell viability rate at each drug concentration was determined by CCK8 or CTG method. In addition, the IC50 value was calculated.

[2] = tested on: A549 cells; assay: Inhibition of proliferation of A549 cells (CCK8 or CTG); settings: Homo sapiens, maximum concentration 10 μM, 5-fold dilution
Experimental: (1) A549 cells in the logarithmic growth phase were digested with 0.25% trypsin and counted. The cells were inoculated into 96-well plates at 2000 cells per well, and the 96-well plates were placed in an incubator containing 5% CO2 at 37° C. for 12 h of culture.
(§2) (2) Six concentration gradients for the compounds to be tested (with the maximum drug concentration of 10 μM and 5-fold dilution) were set. After the cells adhered to the wall, the compounds to be tested were serially diluted with DMSO, then diluted with 1640 complete medium to reach a concentration 1000 times the final concentration, and added to the corresponding wells.
as §1

[3] = tested on: HK-2 cells; assay: Inhibition of proliferation of HK-2 cells (normal cells; CCK8 or CTG); settings: Homo sapiens, maximum concentration 10 μM, 5-fold dilution
Experimental: (1) HK-2 cells in the logarithmic growth phase were digested with 0.25% trypsin and counted. The cells were inoculated into 96-well plates at 2000 cells per well, and the 96-well plates were placed and cultured in an incubator containing 5% CO2 at 37° C. for 12 h.
as §2, with “for the compound to be” for “for the compounds to be”
as §1

| IC50 [1] | IC50 [2] | Compound | IC50 [3] |
| --- | --- | --- | --- |
| < 150 nM | 7.8 nM | CC(C)NC1CCC(C(=O)Nc2sc3c(c2-c2nc4ccc(-c5ccc(N6CCNCC6)nc5)cc4s2)CCNC3)CC1 (stereo not drawn) [Compound 069, 4-(isopropylamino)-N-(3-(6-(6-(piperazin-1-yl)pyridin-3-yl)benzo[d]thiazol-2-yl)-4,5,6,7-tetrahydrothieno [2,3-c]pyridin-2-yl) cyclohexane-1-carboxamide] | 2440 nM |
| < 150 nM | 2.77 nM | CC(C)(C)NC1CC(C(=O)Nc2sc3c(c2-c2nc4ccc(C5=CCNCC5)cc4s2)CCNC3)C1 (stereo not drawn) [Compound 120, 3-(tert-butylamino)-N-(3-(6-(1,2,3,6-tetrahydropyridin-4-yl)benzo[d]thiazol-2-yl)-4,5,6,7-tetrahydrothieno [2,3-c]pyridin-2-yl) cyclobutane-1-carboxamide] | 760 nM |

Second part, the molecule before the results:

| Compound | IC50 [1] | IC50 [2] | IC50 [3] |
| --- | --- | --- | --- |
| CC(C)NC1CC(C(=O)Nc2sc3c(c2-c2nc4ccc(C5=CCNCC5)cc4s2)CCNC3)C1 (stereo not drawn) [Compound 048, 3-(isopropylamino)-N-(3-(6-(1,2,3,6-tetrahydropyridin-4-yl)benzo[d]thiazol-2-yl)-4,5,6,7-tetrahydrothieno[2,3-c]pyridin-2-yl)cyclobutane-1-formylamino] | < 150 nM | 3.35 nM | 1160 nM |
| CC(C)NCCNC(=O)Nc1sc2c(c1-c1nc3ccccc3s1)CCNC2 [Compound 077, 1-(3-(benzo[d]thiazol-2-yl)-4,5,6,7-tetrahydrothieno[2,3-c]pyridin-2-yl)-3-(2-(isopropylamino)ethyl) urea] | < 150 nM | 43.4 nM | 1260 nM |
| COCCNCCC(=O)Nc1sc2c(c1-c1nc3cc(-n4cnc(C)c4)ccc3s1)CCNC2 [Compound a, reference compound] | 150 to 1500 nM | 74 nM | 520 nM |
